“And” between values parts separate entries of the source, which are not always exact repeats. Identical values can stand only once.
Details: Liquid, Ebulliometric method (Recirculating still)

CC(C)O [propan-2-ol]
Details	vapor or sublimation pressure
317.07 K	17.46 kPa
317.65 K	17.98 kPa
318.1 K	18.39 kPa
318.73 K	19.01 kPa
319.19 K	19.48 kPa
319.72 K	20.03 kPa
320.19 K	20.52 kPa
320.65 K	21 kPa
321.11 K	21.49 kPa
321.58 K	22.03 kPa
322.07 K	22.55 kPa
322.47 K	23.03 kPa
322.91 K	23.52 kPa
323.32 K	24.02 kPa
323.71 K	24.51 kPa
324.13 K	25.03 kPa
324.49 K	25.48 kPa
324.94 K	26.04 kPa
325.3 K	26.52 kPa
325.72 K	27.08 kPa
326.18 K	27.69 kPa
326.53 K	28.19 kPa
326.99 K	28.83 kPa
327.46 K	29.45 kPa
327.86 K	30.08 kPa
328.47 K	30.96 kPa
329.06 K	31.86 kPa
329.64 K	32.76 kPa
330.26 K	33.77 kPa
330.73 K	34.52 kPa
331.32 K	35.48 kPa
331.83 K	36.37 kPa
332.44 K	37.45 kPa
332.99 K	38.41 kPa
333.5 K	39.33 kPa
334.1 K	40.41 kPa
334.6 K	41.44 kPa
335.12 K	42.44 kPa
335.64 K	43.46 kPa
336.11 K	44.38 kPa
336.55 K	45.32 kPa
337.07 K	46.34 kPa
337.5 K	47.28 kPa
337.98 K	48.35 kPa
338.45 K	49.34 kPa
338.86 K	50.25 kPa
339.3 K	51.26 kPa
339.72 K	52.33 kPa
340.04 K	53.01 kPa
340.43 K	53.94 kPa
340.89 K	55.03 kPa
341.25 K	55.92 kPa
341.69 K	56.96 kPa
342.09 K	58.05 kPa
342.48 K	59.04 kPa
342.82 K	59.93 kPa
343.2 K	60.91 kPa
343.59 K	61.94 kPa
343.96 K	62.98 kPa
344.32 K	63.92 kPa
344.68 K	64.96 kPa
345.05 K	65.97 kPa
345.35 K	66.84 kPa
345.75 K	68.03 kPa
346.13 K	69.14 kPa
346.46 K	70.12 kPa
347.11 K	72.04 kPa
347.79 K	74.18 kPa
348.37 K	75.96 kPa
348.95 K	77.81 kPa
349.61 K	79.96 kPa
350.08 K	81.58 kPa
350.75 K	83.94 kPa
351.21 K	85.47 kPa
351.69 K	87.17 kPa
352.09 K	88.63 kPa
352.54 K	90.24 kPa
353.16 K	92.57 kPa
353.66 K	94.46 kPa
354.2 K	96.49 kPa
354.59 K	98.05 kPa
355.09 K	100 kPa and 100.03 kPa
355.38 K	101.28 kPa
355.93 K	103.44 kPa
356.4 K	105.38 kPa
356.76 K	106.91 kPa
357.16 K	108.63 kPa
357.52 K	110.13 kPa
357.93 K	111.88 kPa
358.35 K	113.79 kPa
358.65 K	115.1 kPa
358.98 K	116.64 kPa
359.43 K	118.64 kPa
359.77 K	120.24 kPa
360.16 K	122.11 kPa
360.57 K	124.03 kPa
360.9 K	125.62 kPa
361.26 K	127.36 kPa
361.62 K	129.08 kPa
361.98 K	130.93 kPa
362.26 K	132.35 kPa
362.52 K	133.65 kPa

O [water]
Details	vapor or sublimation pressure [kPa]
372.81 K	100
372.84 K	100
